In US20050288222A1, “Methods for enhancing the bioavailability of a drug” (priority 2000, published 2005):
≈ marks a conversion by molar mass, not a printed value. Where “and” joins values, the source holds several entries; their conditions need not be identical. Equal values may be shown once. Read-outs that look alike come from different tables or passages of the source. Non-standard residues stand in square brackets, D forms with d. Residues, ends and D or L forms follow the SMILES beside them. *: point of attachment. X1 = CC(C)C[C@H](C(=O)*)N(C)C

Columns and labels:
[1] = target: B-amyloid (Homo sapiens, UniProt P05067); test: KD of potent B-amyloid aggregation inhibitors (Table II); format: binding
B-amyloid, sequence (P05067 672-711 limits assumed): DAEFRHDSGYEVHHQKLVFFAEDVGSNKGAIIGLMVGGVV

[2] = physchem
[3] = rat, in vivo
[4] = rat, in vivo; remark: listed apart in the source
Source text: The perfused, ipsilateral, left forebrain (choroid plexus removed) was subjected to capillary depletion (as described by Triguero et al., 1990) so as to produce brain supernatant that was void of blood vessels (as determined by alkaline phosphatase measurements).

[5] = rat, in vivo; remark: listed apart in the source
[6] = Biodistribution of 3H-PPI-558 +/- cyclosporin A (experiment 4, Table III); conditions: for Kidney (expressed as % administered): rat, sac t = 61 min
[7] = in vivo; conditions: male, Sprague-Dawley, rat
Procedure: (§1) The drug cocktail was infused (100 μL/h) via a cannula in the external carotid artery so that the infusate was picked up by the blood and carried directly to the Circle of Willis/brain (via the left internal carotid artery, PTA occluded). At 30 minutes post cessation of the 10 minute IA infusion the left side of the brain was voided of blood by manually infusing 1 ml of saline via the cannula in the external carotid artery with the common carotid artery now ligated. The perfused left forebrain (choroid plexus removed) was subjected to capillary depiction (as described by Triguero et al., 1990) so as to produce brain supernatant that was void of blood vessels (as determined by alkaline phosphatase measurements).

[8] = rat, in vivo; remark: listed apart in the source
[9] = in vivo
[10] = in vivo
[11] = rat, in vivo; remark: listed apart in the source
Procedure: as §1

CC(C)C[C@@H](N)C(=O)N[C@@H](C(=O)N[C@H](Cc1ccccc1)C(=O)N[C@H](Cc1ccccc1)C(=O)N[C@@H](C(N)=O)C(C)C)C(C)C [PPI-657, H-D-Leu-D-Val-D-Phe-D-Phe-D-Val-NH2] (H-[dL][dV][dF][dF][dV]-NH2)
Kd [1]: 0.33 nM
solubility [2]: 970 µg/mL (≈ 1560 µM)

CN[C@H](CC(C)C)C(=O)N[C@@H](C(=O)N[C@H](Cc1ccccc1)C(=O)N[C@H](Cc1ccccc1)C(=O)N[C@H](CC(C)C)C(N)=O)C(C)C [PPI-1019, N-methyl-(D-Leu-D-Val-D-Phe-D-Phe-D-Leu)-NH2]
plasma levels in the presence of cyclosporin A [3]: elevated
elevation of brain levels in the presence of cyclosporin A [4]: 5 fold
levels within the liver in the presence of cyclosporin A [5]: decreased levels
solubility [2]: 1000 µg/mL (≈ 1540 µM)

CC(C)C[C@@H](NC(=O)c1ccc(O)cc1)C(=O)N[C@@H](C(=O)N[C@H](Cc1ccccc1)C(=O)N[C@H](Cc1ccccc1)C(=O)N[C@H](C)C(N)=O)C(C)C [PPI-558, 4-Hydroxybenzoyl-D-Leu-D-Val-D-Phe-D-Phe-D-Ala-NH2]
Kidney (expressed as % administered) ([6]; PPI-558/DMPC (1:30) approx. 3 mg/kg IV, without cyclosporin A, MEAN): 0.95 % administered
Kidney (expressed as % administered) ([6]; PPI-558/DMPC (1:30) approx. 3 mg/kg IV, without cyclosporin A, single animals): 0.7 % administered and 1.7 % administered and 0.5 % administered
Kidney (expressed as % administered) ([6]; cyclosporin A 50 mg/kg IV + PPI-558/DMPC (1:30), MEAN): 2.59 % administered
Kidney (expressed as % administered) ([6]; cyclosporin A 50 mg/kg IV + PPI-558/DMPC (1:30), single animals, 50 mg/kg): 2.5 % administered and 2.7 % administered
Kidney FOLD INCREASE ([6]; with cyclosporin A versus without): 3 fold
level at time molar at 0.5 h [7]: > 100 nM
Cartass FOLD INCREASE [8]: 4 fold
Colon FOLD INCREASE [8]: 4 fold
Duodenum FOLD INCREASE [8]: 6 fold
Fat FOLD INCREASE [8]: 2 fold
Heart FOLD INCREASE [8]: 3 fold
Ileum FOLD INCREASE [8]: 2 fold
Liver FOLD INCREASE [8]: 0.4 fold
Lung FOLD INCREASE [8]: 1 fold
Muscle FOLD INCREASE [8]: 5 fold
Pancreas FOLD INCREASE [8]: 7 fold
Spleen FOLD INCREASE [8]: 1 fold
Tongue FOLD INCREASE [8]: 5 fold
Urine FOLD INCREASE [8]: 1 fold
blood at sac FOLD INCREASE [8]: 6 fold
levels within the small intestine in the presence of cyclosporin A [8]: higher levels
plasma levels in the presence of cyclosporin A [3]: elevated
capillary bound level [9]: very low levels
elevation of brain levels in the presence of cyclosporin A [4]: 10 fold
level at time molar [10]: < 5 nM
capillary bound level [11]: approx. 250 nM equiv.
solubility [2]: 1 µg/mL (≈ 1.4 µM)

CC(C)C[C@@H](N)C(=O)N[C@H](Cc1ccccc1)C(=O)N[C@H](Cc1ccccc1)C(=O)N[C@@H](C(=O)N[C@H](CC(C)C)C(N)=O)C(C)C [PPI-578, H-lffvl-NH2]
Kd [1]: 0.29 nM
solubility [2]: 2500 µg/mL (≈ 3930 µM)

CC(C)C[C@@H](N)C(=O)N[C@@H](C(=O)N[C@H](Cc1ccccc1)C(=O)N[C@H](Cc1ccccc1)C(=O)N[C@H](C)C(N)=O)C(C)C [PPI-465, H-lvffa-NH2]
Kd [1]: 0.92 nM
solubility [2]: 1490 µg/mL (≈ 2510 µM)

CC(C)C[C@H](C(=O)N[C@@H](C(=O)N[C@H](Cc1ccccc1)C(=O)N[C@H](Cc1ccccc1)C(=O)N[C@H](CC(C)C)C(N)=O)C(C)C)N(C)C [PPI-1007, (CH3)2-lvffl-NH2] (X1-[dV][dF][dF][dL]-NH2)
solubility [2]: 180 µg/mL (≈ 271 µM)

CC(C)C[C@@H](N)C(=O)N[C@@H](C(=O)N[C@H](Cc1ccccc1)C(=O)NNC(=O)[C@@H](Cc1ccccc1)NC(=O)[C@H](NC(=O)[C@H](N)CC(C)C)C(C)C)C(C)C [PPI-1125, (H-lvf-NH-)2]
solubility [2]: 5000 µg/mL (≈ 6660 µM)
